Test results published in PMC7694948, “Mitochondrial Targeting in an Anti-Austerity Approach Involving Bioactive Metabolites Isolated from the Marine-Derived Fungus Aspergillus sp” (Marine Drugs, 2020).
Like-named read-outs stand apart in the source and are kept apart here.

Legend:
[1] = tested on: human pancreatic carcinoma PANC-1 cells; experiment: Cytotoxicity against PANC-1 cells under glucose-deficient or general culture conditions (WST-8); type: cell-based; settings: for IC50: Homo sapiens, 12 h treatment, WST-8; for S.I. (selectivity index): difference in IC50 values for general culture and glucose-deficient media
Description: PANC-1 cells were maintained in DMEM supplemented with heat-inactivated 10% FBS and kanamycin (50 µg/mL) and grown at 37 °C in a 5% CO2 atmosphere. […] The general culture medium—that is, basal medium containing 10% FBS and […] glucose (final concentration, 25 mM)—was used for comparison. The assay was performed as previously described. Briefly, PANC-1 cells (1 × 10^4 cells/100 µL in 96-well plastic plates) were preincubated in DMEM containing 10% FBS for 24 h. The medium was then changed with either the general glucose medium or glucose-deficient medium to induce adaption to nutrient starvation. After 12-h incubation, serially diluted samples were added to the media. Then, the cells were incubated for an additional 12 h at 37 °C in a 5% CO2 atmosphere. Cell proliferation was identified using WST-8. The IC50 values were determined by linear interpolation of the growth inhibition curve. We assessed the selectivity of the antiproliferative activity (S.I.) on the basis of the difference in the IC50 values for the general culture and glucose-deficient media.

[2] = tested on: oxygen consumption by PANC-1 cells; design: method as in PMID 32002808, PMID 26204821; settings: cited from earlier work
[3] = biological target: Mitochondrial complex III (coenzyme Q cytochrome c oxidoreductase) (Bos taurus, UniProt P00125+P00157+P13272); experiment: MitoCheck Complex Activity Assay, complex III; type: biochemical, bovine
Description: (§1) The inhibitory activity of compound 1 on the mitochondrial electron transport chain (complexes I–V) was analyzed using MitoCheck Complex Activity Assay kits (Cayman Chemical) following the manufacturer’s instructions. The kits measured the enzymatic activity of each complex derived from bovine heart mitochondria in the following systems: Mitochondrial complex I (NADH oxidase/coenzyme Q reductase) activity was determined by measuring the decrease in NADH oxidation, which is reflected by a decrease in absorbance at 340 nm. Mitochondrial complex II (succinate dehydrogenase/coenzyme Q reductase) activity was assessed on the basis of the reduction rate of 2, 6-dichlorophenolindophenol (protonated by reduced coenzyme Q), which is reflected by a decrease in absorbance at 600 nm. Mitochondrial complex III (coenzyme Q cytochrome c oxidoreductase) activity was determined on the basis of the cytochrome c reduction rate, which is reflected by an increase in absorbance at 550 nm. Mitochondrial complex IV (cytochrome c oxidase) activity was determined by measuring the cytochrome c oxidation rate, which is reflected by a decrease in absorbance at 550 nm. Mitochondrial complex V (F1F0 ATP synthase) activity was determined by the NADH oxidation rate, which can be monitored at 340 nm.

colon cancer cells = tested on: colon cancer cells; design: method as in PMID 26707141, PMID 20837130; settings: general culture conditions; cited from earlier work
U937 cell lines = tested on: U937 cell lines; design: method as in PMID 20796195; settings: U937, general culture conditions; cited from earlier work
[4] = biological target: T1, Mitochondrial complex IV (cytochrome c oxidase) (Bos taurus, UniProt P00396+P00415+P68530); experiment: MitoCheck Complex Activity Assay, complex IV; type: biochemical; settings: bovine heart mitochondria
T1 construct: enzymatic activity of each complex derived from bovine heart mitochondria; purchased Cayman Chemical; host or cells: bovine heart mitochondria (tissue-derived, supplied in kit)
Description: as §1, with “The” for “The inhibitory activity of compound 1 on the mitochondrial electron transport chain (complexes I–V) was analyzed using MitoCheck Complex Activity Assay kits (Cayman Chemical) following the manufacturer’s instructions. The”

[5] = tested on: mitochondrial membrane potential of human pancreatic carcinoma PANC-1 cells; experiment: Mitochondrial membrane potential (JC-1 MitoMP Detection Kit); type: cell-based; settings: PANC-1 adapted to glucose-deficient medium; 1 h treatment; JC-1 Red/Green ratio
Description: Figure 2 Effect of compounds 1 and 2 on the mitochondrial membrane potential of human pancreatic carcinoma PANC-1 cells. PANC-1 cells that adapted to glucose-deficient medium in the 96-well plates were treated with the indicated concentrations of the compounds for 1 h. Next, JC-1 working solution was added for measuring the mitochondrial membrane potential, and the plate was incubated for 30 min. The fluorescence intensity of the cells was measured using a Tecan Infinite M1000 microplate reader at Ex 485 nm and Em 535 nm (Green color fluorescence) and Ex 535 nm and Em 595 nm (Red color fluorescence). Differences were considered significant at * p < 0.05.
The mitochondrial membrane potential of PANC-1 cells was evaluated using the JC-1 MitoMP Detection Kit (Dojindo Laboratories) following the manufacturer’s instructions. […] The fluorescence intensity of the cells was assessed using an Infinite M1000 microplate reader (Tecan Group Ltd., Mannedorf, Switzerland) at Ex 485 nm and Em 535 nm (Green color fluorescence) and Ex 535 nm and Em 595 nm (Red color fluorescence). The ratio of the two fluorescence intensities (Red vs. Green) was then calculated.

breast cancer cells = tested on: breast cancer cells; design: method as in PMID 25574462; settings: general culture conditions; cited from earlier work
[6] = tested on: glucose-6-phosphate dehydrogenase; design: method as in PMID 26479318; settings: against breast cancer cells; cited from earlier work
lung cancer cells = tested on: lung cancer cells; design: method as in PMID 26479318, PMID 21725807; settings: general culture conditions; cited from earlier work
cervical carcinoma cells = tested on: cervical carcinoma cells; design: method as in PMID 24071573; settings: general culture conditions; cited from earlier work
[7] = biological target: T2, Mitochondrial complex II (succinate dehydrogenase/coenzyme Q reductase) (Bos taurus, UniProt P31039+P35720+Q3T189+Q95123); experiment: MitoCheck Complex Activity Assay, complex II; type: biochemical, bovine; settings: for IC50: bovine heart mitochondria
T2 construct: enzymatic activity of each complex derived from bovine heart mitochondria; purchased Cayman Chemical; host or cells: bovine heart mitochondria (tissue-derived, supplied in kit)
Description: as §1

SUPB15 cell lines = tested on: SUPB15 cell lines; design: method as in PMID 28810515; settings: SUPB15, general culture conditions; cited from earlier work
NALM6 cell lines = tested on: NALM6 cell lines; design: method as in PMID 28810515; settings: NALM6, general culture conditions; cited from earlier work
K562 cell lines = tested on: K562 cell lines; design: method as in PMID 26479318; settings: K562, general culture conditions; cited from earlier work
CCRF-ADR5000 cells = tested on: CCRF-ADR5000 cells; design: method as in PMID 29707146; settings: CCRF-ADR5000, general culture conditions; cited from earlier work
[8] = tested on: nasopharyngeal carcinoma cells; design: method as in PMID 27694907; settings: general culture conditions; cited from earlier work
[9] = tested on: hepatocellular carcinoma cells; design: method as in PMID 28042511, PMID 29710489; settings: general culture conditions; cited from earlier work
[10] = tested on: oxygen consumption by PANC-1 cells; experiment: Oxygen consumption (Oxygen Consumption Rate Assay Kit); type: cell-based, human; settings: PANC-1 in general glucose medium
Description: Figure 3 Effect of compounds 1 and 2 on the oxygen consumption by PANC-1 cells. The precultured PANC-1 cells in the 96-well plates were incubated in general culture medium for 12 h at 37 °C. The medium was then replaced with fresh medium; subsequently, the test compound was added, followed by addition of the phosphorescent probe to measure the oxygen consumption. The signals were measured with a Tecan Infinite M1000 microplate reader by using the time-resolved mode. Differences were considered significant at * p < 0.05. CCCP: carbonyl cyanide m-chlorophenylhydrazone.
The oxygen consumption of PANC-1 cells was analyzed using the Oxygen Consumption Rate Assay Kit (Cayman Chemical) following the manufacturer’s instructions. Briefly, precultured PANC-1 cells (8.0 × 10^4 cells) in black/clear bottom 96-well plates (Corning Incorporated) were incubated for 12 h at 37 °C in general glucose medium. […] The signals were measured using an Infinite M1000 microplate reader (Tecan Group Ltd., Zurich, Switzrland) in the time-resolved mode at Ex 380 nm and Em 650 nm for 180 min, with a 1-min time interval. Linear regression was applied after subtracting the blank, and the oxygen consumption rate was determined by the slope of each signal profile.

[11] = biological target: Mitochondrial complex V (F1F0 ATP synthase) (Bos taurus, UniProt P00829+P00847+P19483+P32876); experiment: MitoCheck Complex Activity Assay, complex V; type: biochemical, bovine
Description: as §1

[12] = biological target: Mitochondrial complex I (NADH oxidase/coenzyme Q reductase) (Bos taurus, UniProt P03887+P17694+P25708+P42026); experiment: MitoCheck Complex Activity Assay, complex I; type: biochemical, bovine
Description: as §1

SF-268 cells = tested on: SF-268 cells; design: method as in PMID 18758101; settings: 100 µg/mL (352 µM); cited from earlier work
P-388 cells = tested on: P-388 cells; design: method as in PMID 18758101; settings: cited from earlier work
A-549 cells = tested on: A-549 cells; design: method as in PMID 18758101; settings: cited from earlier work
HL-60 cells = tested on: HL-60 cells; design: method as in PMID 18758101; settings: cited from earlier work
K-562 cells = tested on: K-562 cells; design: method as in PMID 18758101; settings: cited from earlier work
NCI-H460 cells = tested on: NCI-H460 cells; design: method as in PMID 18758101; settings: 100 µg/mL (352 µM); cited from earlier work
MCF-7 cells = tested on: MCF-7 cells; design: method as in PMID 18758101; settings: 100 µg/mL (352 µM); cited from earlier work
[13] = PANC-1, glucose-deficient medium, 12 h adaptation
[14] = conversion of 10 µg/mL, read-out: IC50

Mitochondrial complex III (coenzyme Q cytochrome c oxidoreductase), sequence (P00125 85-325): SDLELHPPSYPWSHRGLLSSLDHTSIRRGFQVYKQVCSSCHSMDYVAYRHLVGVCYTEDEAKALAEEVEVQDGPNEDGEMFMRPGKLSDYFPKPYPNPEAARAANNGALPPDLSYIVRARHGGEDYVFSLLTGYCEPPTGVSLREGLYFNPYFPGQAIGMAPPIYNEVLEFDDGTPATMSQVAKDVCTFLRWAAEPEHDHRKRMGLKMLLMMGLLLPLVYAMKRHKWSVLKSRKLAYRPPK
Mitochondrial complex III (coenzyme Q cytochrome c oxidoreductase), sequence (P00157 whole entry): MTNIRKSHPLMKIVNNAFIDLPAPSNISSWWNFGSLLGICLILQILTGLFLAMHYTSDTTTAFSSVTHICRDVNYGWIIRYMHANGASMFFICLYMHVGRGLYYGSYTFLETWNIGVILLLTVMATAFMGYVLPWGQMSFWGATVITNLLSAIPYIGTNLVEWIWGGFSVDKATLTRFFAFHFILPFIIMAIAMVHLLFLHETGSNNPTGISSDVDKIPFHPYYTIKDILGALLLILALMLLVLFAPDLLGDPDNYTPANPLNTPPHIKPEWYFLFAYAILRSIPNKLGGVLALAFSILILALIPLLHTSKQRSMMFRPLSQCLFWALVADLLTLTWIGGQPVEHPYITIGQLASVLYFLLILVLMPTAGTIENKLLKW
Mitochondrial complex III (coenzyme Q cytochrome c oxidoreductase), sequence (P13272 whole entry): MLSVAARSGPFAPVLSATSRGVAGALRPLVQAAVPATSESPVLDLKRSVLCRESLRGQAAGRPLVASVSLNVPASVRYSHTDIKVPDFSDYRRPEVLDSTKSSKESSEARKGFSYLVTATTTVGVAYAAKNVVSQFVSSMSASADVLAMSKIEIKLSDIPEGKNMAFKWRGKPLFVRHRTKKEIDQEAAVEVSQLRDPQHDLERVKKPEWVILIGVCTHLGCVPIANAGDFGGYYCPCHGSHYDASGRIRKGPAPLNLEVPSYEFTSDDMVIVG
T2 sequence (P31039 44-665): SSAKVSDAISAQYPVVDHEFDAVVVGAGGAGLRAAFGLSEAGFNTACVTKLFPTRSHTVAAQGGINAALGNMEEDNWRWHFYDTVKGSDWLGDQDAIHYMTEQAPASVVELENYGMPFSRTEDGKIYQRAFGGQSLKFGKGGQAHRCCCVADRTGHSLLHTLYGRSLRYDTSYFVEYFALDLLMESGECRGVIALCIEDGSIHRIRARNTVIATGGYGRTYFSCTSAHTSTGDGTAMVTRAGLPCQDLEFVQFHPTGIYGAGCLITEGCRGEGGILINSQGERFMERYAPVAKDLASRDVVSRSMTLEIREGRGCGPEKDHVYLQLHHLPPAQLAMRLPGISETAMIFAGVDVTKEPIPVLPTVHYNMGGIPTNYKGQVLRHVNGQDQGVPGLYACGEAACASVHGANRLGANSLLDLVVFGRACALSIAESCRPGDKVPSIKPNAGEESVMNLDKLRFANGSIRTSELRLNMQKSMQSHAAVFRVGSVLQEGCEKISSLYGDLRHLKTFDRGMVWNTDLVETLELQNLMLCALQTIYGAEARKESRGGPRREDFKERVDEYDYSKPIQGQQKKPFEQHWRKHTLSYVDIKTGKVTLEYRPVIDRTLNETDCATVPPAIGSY
T2 sequence (Q3T189 29-280): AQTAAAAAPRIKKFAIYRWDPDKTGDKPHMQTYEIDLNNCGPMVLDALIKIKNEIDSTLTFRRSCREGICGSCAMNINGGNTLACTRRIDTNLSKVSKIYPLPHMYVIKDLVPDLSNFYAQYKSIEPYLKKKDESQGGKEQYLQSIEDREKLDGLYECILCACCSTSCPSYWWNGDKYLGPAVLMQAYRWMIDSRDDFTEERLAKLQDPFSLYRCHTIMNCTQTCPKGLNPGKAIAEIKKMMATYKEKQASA
T2 sequence (P35720 30-169): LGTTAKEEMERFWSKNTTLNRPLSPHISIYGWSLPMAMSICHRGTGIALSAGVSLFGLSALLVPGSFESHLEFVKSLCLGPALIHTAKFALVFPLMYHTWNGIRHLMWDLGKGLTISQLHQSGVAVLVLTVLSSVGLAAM
T2 sequence (Q95123 56-158): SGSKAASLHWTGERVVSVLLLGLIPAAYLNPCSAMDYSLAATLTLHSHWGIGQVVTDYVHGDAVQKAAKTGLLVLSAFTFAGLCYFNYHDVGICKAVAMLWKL

With `CCCCCC[C@H]1C(=O)O[C@H](C)[C@H](NC(=O)c2cccc(NC=O)c2O)C(=O)O[C@@H](C)[C@@H]1OC(=O)CC(C)C` [Antimycin A, reference compound] the IC50 ([1]; PANC-1, general glucose medium) was 288 ± 0.5 µM, the IC50 [1, 13] was 0.0003 µM and the “S.I. (selectivity index)” value [1] was 960,000. For the same compound, the “effect on oxygen consumption” value [2] was “reduces oxygen consumption” and the IC50 [3] was 0.03 ± 0.01 µM.
For `N#CC(C#N)=NNc1cccc(Cl)c1` [CCCP, carbonyl cyanide m-chlorophenylhydrazone], the “effect on oxygen consumption” value [2] is given as “increase the oxygen consumption”.
For `COc1cc(O)c2c(c1)C(=O)c1cc(C)cc(O)c1C2=O` [Compound 1, physcion], the IC50 (colon cancer cells) is given as 10 to 50 µM, the IC50 (U937 cell lines) is given as 27.9 µM and the IC50 [4] is given as 34 ± 0.3 µM. For the same compound, the “effect on mitochondrial membrane potential” value [5] was “dose-dependently decrease”, the IC50 (breast cancer cells) was 45.4 µM and the “inhibition of glucose-6-phosphate dehydrogenase” value [6] was “specific inhibitor”. For the same compound, the IC50 (lung cancer cells) was 15.1 to 35.1 µM, the IC50 (cervical carcinoma cells) was 100 µM and the IC50 ([1]; PANC-1, general glucose medium) was 1017 ± 0.05 µM. The IC50 [1, 13] was 6 ± 0.1 µM, the “S.I. (selectivity index)” value [1] was 169.5 and the IC50 [7] was 90 ± 0.11 µM. The IC50 (SUPB15 cell lines) was 5 µM, the IC50 (NALM6 cell lines) was 5 µM and the inhibition at 100 µM [3] was 9%. For the same compound, the IC50 ([3]; bovine heart mitochondria) was > 100 µM, the IC50 (K562 cell lines) was 12.5 µM and the IC50 (CCRF-ADR5000 cells) was 74.8 µM. For the same compound, the IC50 [8] was 20 µM, the IC50 [9] was 10 µM and the “effect on oxygen consumption” value [10] was “inhibit oxygen consumption to a similar extent as antimycin A”.
With `C/C=C/C=C/c1cc2c(C=O)c(O)c(CC=C(C)C)cc2o1` [Compound 2, 2-(2′,3-epoxy-1′,3′,5′-heptatrienyl)-6-hydroxy-5-(3-methyl-2-butenyl) benzaldehyde] the “inhibition of complex V” value ([11]; 100 µM) was “not inhibited”, the IC50 ([11]; bovine heart mitochondria) was > 100 µM and the IC50 [4] was 20 ± 0.3 µM. For the same compound, the “effect on mitochondrial membrane potential” value [5] was “dose-dependently decrease”, the inhibition at 100 µM ([12]; 100 µM) was 18% and the IC50 ([12]; bovine heart mitochondria) was > 100 µM. The IC50 ([1]; PANC-1, general glucose medium) was 859 ± 1 µM, the IC50 [1, 13] was 1.7 ± 0.05 µM and the “selective growth-inhibitory activity under glucose-deficient vs general culture conditions” value ([1]; PANC-1) was 505 fold. For the same compound, the cytotoxic effect (SF-268 cells) was “more than 90%”, the inhibition at 100 µM ([7]; 100 µM) was 24% and the IC50 [7] was > 100 µM. For the same compound, the IC50 (P-388 cells) was “higher than 10 µg/mL”, the IC50 (P-388 cells; [14]) was > 35.2 µM and the IC50 (A-549 cells) was “higher than 10 µg/mL”. The IC50 (A-549 cells; [14]) was > 35.2 µM, the IC50 (HL-60 cells) was “higher than 10 µg/mL” and the IC50 (HL-60 cells; [14]) was > 35.2 µM. The IC50 (K-562 cells) was “higher than 10 µg/mL”, the IC50 (K-562 cells; [14]) was > 35.2 µM and the inhibition at 100 µM [3] was 6%. The IC50 ([3]; bovine heart mitochondria) was > 100 µM, the cytotoxic effect (NCI-H460 cells) was “more than 90%” and the cytotoxic effect (MCF-7 cells) was “more than 90%”. The “effect on oxygen consumption” value [10] was “inhibit oxygen consumption to a similar extent as antimycin A”.
For `COC(=O)[C@@]12Oc3ccc(-c4ccc5c(c4O)C(O)C4=C(O)C[C@H](C)[C@@H](O)[C@]4(C(=O)OC)O5)c(O)c3C(=O)C1=C(O)C[C@H](C)[C@H]2O` (stereo partly drawn) [secalonic acid D], the “effect on oxygen consumption” value [2] is listed as “increase the oxygen consumption”.
For `O=C(CC(=O)C(F)(F)F)c1cccs1` [thenoyltrifluoroacetone, reference compound], the IC50 [7] was 68 ± 0.01 µM.
